Data reported in PubChem BioAssay (NCI).
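Assay format: 96-well plates, 48-hour exposure. GI50 = concentration required for 50% inhibition of growth. At the TGI there is no net growth.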

What was measured:
Assay in all cases: NCI-60 cell line screen, 48 h
[1] = system: 786-0 renal
[2] = system: A498 renal
[3] = system: A549 NSCLC
[4] = system: ACHN renal
[5] = system: BT-549 breast
[6] = system: CAKI-1 renal
[7] = system: CCRF-CEM leukemia
[8] = system: COLO 205 colon
[9] = system: DU-145 prostate
[10] = system: EKVX NSCLC
[11] = system: HCC-2998 colon
[12] = system: HCT-116 colon
[13] = system: HCT-15 colon
[14] = system: HL-60(TB) leukemia
[15] = system: HOP-62 NSCLC
[16] = system: HOP-92 NSCLC
[17] = system: HS 578T breast
[18] = system: HT29 colon
[19] = system: IGROV1 ovarian
[20] = system: K-562 leukemia
[21] = system: KM12 colon
[22] = system: M14 melanoma
[23] = system: MALME-3M melanoma
[24] = system: MCF7 breast
[25] = system: MDA-MB-231 breast
[26] = system: MDA-MB-435
[27] = system: MDA-MB-468 breast
[28] = system: MOLT-4 leukemia
[29] = system: NCI-H226 lung

Question: With `O=c1nc(-c2ccccc2)cc(-c2cc3ccccc3nc2Cl)[nH]1` as the compound, how does the GI50 [1] read?
Answer: Its GI50 is 3.39 µM.

Question: What about the TGI [1] of the same compound?
Answer: The TGI was 13.3 µM.

Question: And the GI50 [2]?
Answer: Its GI50 is 21.2 µM.

Question: And the TGI [2]?
Answer: The TGI was 43.5 µM.

Question: And the GI50 [3]?
Answer: The GI50 was 11.6 µM.

Question: And the TGI [3]?
Answer: The TGI was 80.3 µM.

Question: And the GI50 [4]?
Answer: Its GI50 is 5.59 µM.

Question: And the TGI [4]?
Answer: Its TGI is 18.2 µM.

Question: What about the GI50 [5] of the same compound?
Answer: The GI50 was 2.61 µM.

Question: And the TGI [5]?
Answer: The TGI was 13.3 µM.

Question: And the GI50 [6]?
Answer: The GI50 was 10.1 µM.

Question: What about the TGI [6] of the same compound?
Answer: Its TGI is 23 µM.

Question: What about the GI50 [7] of the same compound?
Answer: Its GI50 is 2.75 µM.

Question: And the TGI [7]?
Answer: The TGI was 9.32 µM.

Question: And the GI50 [8]?
Answer: Its GI50 is 8.33 µM.

Question: And the TGI [8]?
Answer: Its TGI is 25.4 µM.

Question: And the GI50 [9]?
Answer: Its GI50 is 7.23 µM.

Question: And the TGI [9]?
Answer: Its TGI is 20.3 µM.

Question: And the GI50 [10]?
Answer: Its GI50 is 14.5 µM.

Question: And the TGI [10]?
Answer: The TGI was 36.8 µM.

Question: And the GI50 [11]?
Answer: Its GI50 is 16.9 µM.

Question: What about the TGI [11] of the same compound?
Answer: The TGI was 33.7 µM.

Question: What about the GI50 [12] of the same compound?
Answer: The GI50 was 1.89 µM.

Question: What about the TGI [12] of the same compound?
Answer: Its TGI is 3.9 µM.

Question: What about the GI50 [13] of the same compound?
Answer: The GI50 was 2.12 µM.

Question: And the TGI [13]?
Answer: Its TGI is 5.22 µM.

Question: And the GI50 [14]?
Answer: Its GI50 is 2.27 µM.

Question: And the TGI [14]?
Answer: The TGI was 6.67 µM.

Question: And the GI50 [15]?
Answer: The GI50 was 5.23 µM.

Question: And the TGI [15]?
Answer: The TGI was 20.6 µM.

Question: What about the GI50 [16] of the same compound?
Answer: The GI50 was 4.21 µM.

Question: What about the TGI [16] of the same compound?
Answer: Its TGI is 22.4 µM.

Question: And the GI50 [17]?
Answer: Its GI50 is 12.3 µM.

Question: And the TGI [17]?
Answer: The TGI was 60.2 µM.

Question: And the GI50 [18]?
Answer: Its GI50 is 6.62 µM.

Question: And the TGI [18]?
Answer: The TGI was 24.8 µM.

Question: And the GI50 [19]?
Answer: Its GI50 is 12.8 µM.

Question: And the TGI [19]?
Answer: Its TGI is 27.9 µM.

Question: What about the GI50 [20] of the same compound?
Answer: Its GI50 is 2.71 µM.

Question: What about the TGI [20] of the same compound?
Answer: Its TGI is 9.19 µM.

Question: What about the GI50 [21] of the same compound?
Answer: Its GI50 is 1.96 µM.

Question: And the TGI [21]?
Answer: The TGI was 4.39 µM.

Question: And the GI50 [22]?
Answer: The GI50 was 12 µM.

Question: What about the TGI [22] of the same compound?
Answer: The TGI was 31.6 µM.

Question: What about the GI50 [23] of the same compound?
Answer: Its GI50 is 12.4 µM.

Question: What about the TGI [23] of the same compound?
Answer: The TGI was 26.4 µM.

Question: And the GI50 [24]?
Answer: The GI50 was 2.53 µM.

Question: And the TGI [24]?
Answer: Its TGI is 14.8 µM.

Question: And the GI50 [25]?
Answer: The GI50 was 6.12 µM.

Question: And the TGI [25]?
Answer: The TGI was 19.3 µM.

Question: And the GI50 [26]?
Answer: The GI50 was 6.96 µM.

Question: What about the TGI [26] of the same compound?
Answer: Its TGI is 22.3 µM.

Question: And the GI50 [27]?
Answer: The GI50 was 4.24 µM.

Question: What about the TGI [27] of the same compound?
Answer: The TGI was 19.5 µM.

Question: What about the GI50 [28] of the same compound?
Answer: The GI50 was 3.07 µM.

Question: What about the TGI [28] of the same compound?
Answer: Its TGI is 12.4 µM.

Question: What about the GI50 [29] of the same compound?
Answer: The GI50 was 11.2 µM.
